Legend:
hFAP (M39-A757) = molecular target: T1, hFAP (M39-A757) (Homo sapiens, UniProt Q12884); test: biochemical;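 also: surface plasmon resonance direct binding to hFAP amine-coupled on a sensor chip, rising compound concentrations by single cycle kinetics, Kd from global fit of interaction models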
T1 sequence (Q12884 39-757): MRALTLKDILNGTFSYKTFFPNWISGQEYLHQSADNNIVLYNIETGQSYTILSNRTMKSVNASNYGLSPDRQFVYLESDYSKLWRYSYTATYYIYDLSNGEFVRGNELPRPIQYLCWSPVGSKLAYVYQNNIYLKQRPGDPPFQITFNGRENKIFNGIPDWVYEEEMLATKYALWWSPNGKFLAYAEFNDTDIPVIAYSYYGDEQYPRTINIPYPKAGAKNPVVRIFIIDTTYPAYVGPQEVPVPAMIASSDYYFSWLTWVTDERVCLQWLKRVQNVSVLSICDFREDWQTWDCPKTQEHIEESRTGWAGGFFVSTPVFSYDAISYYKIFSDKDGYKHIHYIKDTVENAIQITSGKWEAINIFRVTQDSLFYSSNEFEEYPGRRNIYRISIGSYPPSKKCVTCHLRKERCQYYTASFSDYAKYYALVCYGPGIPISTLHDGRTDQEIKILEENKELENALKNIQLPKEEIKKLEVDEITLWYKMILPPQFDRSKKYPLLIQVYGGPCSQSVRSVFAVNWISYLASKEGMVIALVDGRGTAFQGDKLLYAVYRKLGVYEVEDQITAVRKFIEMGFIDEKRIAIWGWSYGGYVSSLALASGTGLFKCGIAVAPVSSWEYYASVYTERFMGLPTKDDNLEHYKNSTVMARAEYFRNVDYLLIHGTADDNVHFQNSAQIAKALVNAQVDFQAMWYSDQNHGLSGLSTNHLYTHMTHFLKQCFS
Procedure: Compounds were tested in a direct binding assay using 8K surface plasmon resonance biosensor (GE Healthcare) at 20° C. Immobilization of hFAP (M39-A757) on a CMD200M sensor chip (Xantec) was performed using standard amine coupling procedure in immobilization buffer (10 mM HEPES, 150 mM NaCl, 0.05% Tween20, pH 7.4). The surface was washed with 10 mM aq NaOH, 1M NaCl before being activated with EDC/NHS (GE Healthcare), followed by immobilization of hFAP (in 10 mM Acetate pH 5.0). Finally, the surface was deactivated by ethanolamine. Immobilization levels of hFAP were around 4000-6000 RU. The reference spot was treated as described, omitting the injection of hFAP. Compound concentration series were injected over the immobilized protein in increasing concentrations (2-500 nM) using single cycle kinetics in running buffer (20 mM TRIS, 150 mM NaCl, 0.05% Tween20, 1% DMSO, pH 7.4). Interaction models were fitted globally to the experimental traces, enabling determination of kon, koff and Kd.

Kinetic solubility = format: physicochemical; details: kinetic from dmso stock, n = 1 or average (n = 2-4)
Procedure: Kinetic solubility was measured as described in Comput Aided Mol Des 2015, 29, 795.

Rat Hepatocytes (rHep) = test: Metabolic stability in rat hepatocytes (rHep); format: in vitro ADME; details: n = 1 or geometric mean (n = 2-3)
Procedure: Metabolic stability in rat hepatocytes was measured as described in J Comput Aided Mol Des 2015, 29, 795.

[1] = Metabolic stability in human liver microsomes (HLM); format: in vitro ADME; details: n = 1 or average (n = 2-3)
Procedure: Metabolic stability in HLM was measured as described in J Comput Aided Mol Des 2015, 29, 795.

[2] = Caco-2 AB intrinsic permeability; format: in vitro ADME; details: human, A to B intrinsic, n = 1 or average (n = 2), read-out: Caco2 AB Intrinsic Papp
Procedure: Caco-2 cell permeability was measured as described in Mol Pharm 2017, 14, 1601.

[3] = molecular target: T2, Prolyl endopeptidase, Prolyl Oligopeptidase (hPREP) (Homo sapiens, UniProt P48147); test: biochemical
T2 sequence (P48147 1-710): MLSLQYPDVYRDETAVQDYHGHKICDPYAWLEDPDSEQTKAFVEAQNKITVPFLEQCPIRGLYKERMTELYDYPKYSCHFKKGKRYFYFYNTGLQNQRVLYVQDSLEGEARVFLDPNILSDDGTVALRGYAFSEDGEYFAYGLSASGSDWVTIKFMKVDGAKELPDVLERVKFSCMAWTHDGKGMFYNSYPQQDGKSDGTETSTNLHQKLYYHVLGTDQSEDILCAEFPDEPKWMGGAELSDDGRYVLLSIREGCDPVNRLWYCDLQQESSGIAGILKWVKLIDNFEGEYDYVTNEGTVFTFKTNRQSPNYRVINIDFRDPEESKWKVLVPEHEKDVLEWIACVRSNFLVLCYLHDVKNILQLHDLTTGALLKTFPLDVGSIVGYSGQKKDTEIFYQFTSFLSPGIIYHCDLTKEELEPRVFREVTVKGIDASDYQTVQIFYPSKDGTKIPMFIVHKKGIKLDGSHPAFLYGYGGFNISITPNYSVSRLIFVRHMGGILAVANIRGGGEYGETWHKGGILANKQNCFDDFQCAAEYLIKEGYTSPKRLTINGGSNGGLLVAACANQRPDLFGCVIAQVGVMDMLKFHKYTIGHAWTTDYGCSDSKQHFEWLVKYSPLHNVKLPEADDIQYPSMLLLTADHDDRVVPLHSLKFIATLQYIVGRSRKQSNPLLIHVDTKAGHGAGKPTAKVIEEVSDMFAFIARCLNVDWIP

[4] = molecular target: T3, human dipeptidylpeptidase 9 (hDPP9) (Homo sapiens, UniProt Q86TI2); test: hDPP9 inhibition assay; format: biochemical; details: hDPP9 0.4 nM, Ala-Pro-amino-methylcoumarin 5 μM; n = 1
T3 construct: purchased BPS Bioscience 80090
Procedure: (§1) Compounds were tested in a biochemical inhibition assay using human dipeptidylpeptidase 9 (hDPP9) enzyme at 0.4 nM FAC (BPS Bioscience, #80090) and the substrate Ala-Pro-amino-methylcoumarin (BPS Bioscience #80305) at 5 μM FAC. The enzymatic reactions were conducted in duplicate at rt for 30 min in 50 μL DPP assay buffer (BPS Bioscience, #80300). Compound solutions (in DMSO) at 10 CR, 3 fold dilution series were prepared in assay buffer ten-fold higher than the final concentration, and 5 μL of the dilution was added to a 50 μL reaction so that the highest compound concentration was 100 μM FAC and the concentration of DMSO was 1% in all wells. The plates were read on a Tecan Infinite M1000 microplate reader with excitation 340 nm and emission 460 nm. Data were analyzed in Graph Pad Prism. […] Raw data signals were normalized using 1% DMSO as 0% control and no enzyme as 100% inhibitor control.

[5] = molecular target: T4, human dipeptidylpeptidase 8 (hDPP8) (Homo sapiens, UniProt Q6V1X1); test: hDPP8 inhibition assay; format: biochemical; details: hDPP8 1.5 nM, Ala-Pro-amino-methylcoumarin 5 μM; n = 1
T4 construct: purchased BPS Bioscience 80080
Procedure: as §1, with “8 (hDPP8)” for “9 (hDPP9)”, “1.5” for “0.4”, “#80080)” for “#80090)”

[6] = molecular target: T5, human dipeptidylpeptidase 7 (hDPP7) (Homo sapiens, UniProt Q9UHL4); test: hDPP7 inhibition assay; format: biochemical; details: hDPP7 15 nM, Ala-Pro-amino-methylcoumarin 5 μM; n = 1
T5 construct: purchased BPS Bioscience 80070
Procedure: Compounds were tested in a biochemical inhibition assay using human dipeptidylpeptidase 7 (hDPP7) enzyme at 15 nM FAC (BPS Bioscience, #80070) and the substrate Ala-Pro-amino-methylcoumarin (BPS Bioscience, #80305) at 5 μM FAC. The enzymatic reactions were conducted in duplicate at rt for 30 min in 50 μL DPP assay buffer (BPS Bioscience, #80300). Compound solutions (in DMSO) at 10 CR, 3 fold dilution series were prepared in assay buffer ten-fold higher than the final concentration, and 5 μL of the dilution was added to a 50 μL reaction so that the highest compound concentration was 100 μM FAC and the concentration of DMSO was 1% in all wells. The plates were read on a Tecan Infinite M1000 microplate reader with excitation 340 nm and emission 460 nm. Data were analyzed in Graph Pad Prism. […] Raw data signals were normalized using 1% DMSO as 0% control and no enzyme as 100% inhibitor control.

T3 sequence (Q86TI2 whole entry): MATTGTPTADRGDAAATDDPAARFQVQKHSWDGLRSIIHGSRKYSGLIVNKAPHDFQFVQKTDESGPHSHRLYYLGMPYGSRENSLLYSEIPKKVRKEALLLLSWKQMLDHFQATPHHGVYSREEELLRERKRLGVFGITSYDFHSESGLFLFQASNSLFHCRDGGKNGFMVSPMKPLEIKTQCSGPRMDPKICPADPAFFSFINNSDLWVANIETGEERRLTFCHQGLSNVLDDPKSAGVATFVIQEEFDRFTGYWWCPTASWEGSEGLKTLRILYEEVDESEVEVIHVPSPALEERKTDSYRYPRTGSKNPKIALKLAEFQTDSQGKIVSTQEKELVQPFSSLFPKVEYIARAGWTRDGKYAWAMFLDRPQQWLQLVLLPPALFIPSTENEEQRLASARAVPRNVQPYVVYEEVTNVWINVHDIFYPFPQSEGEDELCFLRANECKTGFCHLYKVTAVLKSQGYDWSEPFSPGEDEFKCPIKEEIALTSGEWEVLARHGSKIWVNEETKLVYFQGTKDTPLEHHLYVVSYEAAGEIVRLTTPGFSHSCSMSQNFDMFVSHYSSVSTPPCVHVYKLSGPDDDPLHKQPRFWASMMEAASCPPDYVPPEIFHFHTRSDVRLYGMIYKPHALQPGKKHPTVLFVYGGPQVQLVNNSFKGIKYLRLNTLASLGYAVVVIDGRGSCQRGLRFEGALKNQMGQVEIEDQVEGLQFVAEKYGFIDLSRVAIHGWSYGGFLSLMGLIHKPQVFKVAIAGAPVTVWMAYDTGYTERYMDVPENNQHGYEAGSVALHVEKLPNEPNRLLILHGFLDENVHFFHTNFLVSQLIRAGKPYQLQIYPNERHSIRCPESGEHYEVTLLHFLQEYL
T4 sequence (Q6V1X1 whole entry): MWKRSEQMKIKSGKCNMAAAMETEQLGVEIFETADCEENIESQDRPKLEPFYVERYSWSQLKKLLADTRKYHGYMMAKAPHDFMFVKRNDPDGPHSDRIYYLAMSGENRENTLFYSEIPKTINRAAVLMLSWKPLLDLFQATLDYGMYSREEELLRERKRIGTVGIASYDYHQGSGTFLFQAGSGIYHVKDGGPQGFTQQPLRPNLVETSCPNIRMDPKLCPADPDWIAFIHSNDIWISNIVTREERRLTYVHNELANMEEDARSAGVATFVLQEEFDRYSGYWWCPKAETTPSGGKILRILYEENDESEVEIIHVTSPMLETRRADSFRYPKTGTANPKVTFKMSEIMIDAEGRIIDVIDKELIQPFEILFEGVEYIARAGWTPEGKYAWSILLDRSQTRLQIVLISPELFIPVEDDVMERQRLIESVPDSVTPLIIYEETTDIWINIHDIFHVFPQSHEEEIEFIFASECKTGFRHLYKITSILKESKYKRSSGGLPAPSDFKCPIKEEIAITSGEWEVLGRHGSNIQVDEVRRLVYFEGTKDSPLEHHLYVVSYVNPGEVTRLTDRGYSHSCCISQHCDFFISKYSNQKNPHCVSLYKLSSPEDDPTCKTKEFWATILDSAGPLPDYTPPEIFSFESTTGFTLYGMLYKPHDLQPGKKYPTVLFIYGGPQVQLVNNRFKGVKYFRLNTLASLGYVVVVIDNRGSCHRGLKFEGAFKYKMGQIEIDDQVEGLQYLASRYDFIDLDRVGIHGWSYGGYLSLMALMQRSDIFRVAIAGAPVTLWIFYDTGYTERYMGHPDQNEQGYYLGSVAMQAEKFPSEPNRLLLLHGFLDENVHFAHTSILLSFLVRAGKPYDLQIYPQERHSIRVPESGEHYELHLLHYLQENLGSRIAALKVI

Row | Kd (hFAP (M39-A757)) [nM] | solubility (Kinetic solubility) [µM] | rHeps CLint (Rat Hepatocytes (rHep)) [μL/min/1E6] | microsomal CLint [1] [µL/min/mg] | Papp A→B [2] [×10⁻⁶ cm/s] | IC50 [3] [nM] | IC50 [4] [nM] | IC50 [5] [nM] | IC50 [6] [nM] | Compound
1 | 0.057 | > 1000 | <1 | < 3 | 10 | 570 | – | – | – | COCCOc1ccc2nccc(C(=O)NCC(=O)N3CSC[C@H]3C#N)c2c1 [Example 4, (R)—N-(2-(4-Cyanothiazolidin-3-yl)-2-oxoethyl)-6-(2-methoxyethoxy)quinoline-4-carboxamide]
2 | – | – | – | – | – | 1200 | 2900 | 6400 | > 100000 | N#C[C@@H]1CSCN1C(=O)CNC(=O)c1ccnc2ccc(OC3CCOCC3)cc12 [Example 6, (R)—N-(2-(4-Cyanothiazolidin-3-yl)-2-oxoethyl)-6-((tetrahydro-2H-pyran-4-yl)oxy)quinoline-4-carboxamide]
